According to patent US10450356B2, “PRAME derived peptides and immunogenic compositions comprising these” (Academisch Ziekenhuis Leiden H.O.D.N. LUMC, priority 2007, dated 2019):
Where no end group is shown, it is not given here.

Biological target: T1, 20S proteasomes purified from a B-LCL cell line (immunoproteasomes) (Homo sapiens, UniProt P28062+P28065+P40306)
T1 construct: 20S proteasomes were purified from a B-LCL cell line; endogenous in cells; purified after Groettrup et al. 1995
Assay: In vitro proteasome mediated cleavage analysis
Type: biochemical
Parameters: key to Intact in fragment / Intact Fragment: intact epitope found in digestion fragments: (+), present; (-), not present; key to Processing C-term: generation by proteasome-mediated digestion of fragments containing the correct C-terminus: (++) fragments present for >5%; (+) present for <5%; (-) no fragments containing the C-term. were found
Details: for Processing C-term: generation by proteasome-mediated digestion of fragments containing the correct C-terminus: 1 h digestion; for Intact Fragment: intact epitope found in digestion fragments: after 1 h digestion; for C-term. generation: generation of C-terminus of the epitope after 1 h digestion; for Intact in fragment: intact epitope found in digestion fragments after 1 h digestion
How it was run: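 Immunoproteasome-rich 20S proteasomes from a B-LCL line (high LMP2/7 content by 2-D immunoblot). 27-mer peptides (20 μg) were digested with 1 μg proteasome at 37° C for 1 h, 4 h and 24 h, then stopped with TFA. Fragments were identified by nanoelectrospray Q-TOF MS, with peak intensities giving relative peptide amounts.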

| Compound | Processing C-term: generation by proteasome-mediated digestion of fragments containing the correct C-terminus | Intact Fragment: intact epitope found in digestion fragments | C-term. generation | Intact in fragment |
| --- | --- | --- | --- | --- |
| CC(C)C[C@H](NC(=O)[C@@H](N)CC(C)C)C(=O)N[C@@H](C)C(=O)N[C@@H](CCC(N)=O)C(=O)N[C@@H](CCC(=O)O)C(=O)N[C@H](C(=O)N[C@@H](CCCNC(=N)N)C(=O)N1CCC[C@H]1C(=O)N[C@@H](CCCNC(=N)N)C(=O)N[C@@H](CCCNC(=N)N)C(=O)O)C(C)C | - | - |  |  |
| CC[C@H](C)[C@H](NC(=O)[C@H](CC(C)C)NC(=O)[C@H](Cc1c[nH]cn1)NC(=O)[C@H](CCC(N)=O)NC(=O)[C@H](CC(C)C)NC(=O)[C@H](CC(C)C)NC(=O)[C@H](CO)NC(=O)[C@H](CCC(N)=O)NC(=O)[C@H](CC(C)C)NC(=O)[C@H](C)N)C(=O)O | - | - |  |  |
| CC(C)C[C@H](NC(=O)[C@@H]1CCCN1C(=O)[C@H](CCC(=O)O)NC(=O)[C@@H]1CCCN1C(=O)[C@H](CO)NC(=O)[C@@H](NC(=O)[C@H](CC(=O)O)NC(=O)[C@@H](NC(=O)[C@@H](N)CC(C)C)[C@@H](C)O)C(C)C)C(=O)N[C@@H](CCC(N)=O)C(=O)O | + ((+) present for <5%) | + | + (low abundant (+) present for <5%) | + |
| CC[C@H](C)[C@H](NC(=O)[C@H](C)NC(=O)[C@H](CC(C)C)NC(=O)[C@H](C)NC(=O)[C@H](CCC(=O)O)NC(=O)[C@H](CC(=O)O)NC(=O)[C@H](CCCCN)NC(=O)[C@H](CC(C)C)NC(=O)[C@@H](N)CC(C)C)C(=O)O | ++ ((++) fragments present for >5%) | + | ++ (abundant (++) present for >5%) | + |
| CC(C)C[C@H](NC(=O)[C@H](Cc1ccc(O)cc1)NC(=O)[C@H](C)NC(=O)[C@H](CC(C)C)NC(=O)[C@H](CCCNC(=N)N)NC(=O)[C@H](CCC(=O)O)NC(=O)[C@H](CC(C)C)NC(=O)[C@H](Cc1c[nH]cn1)NC(=O)[C@H](CC(C)C)NC(=O)[C@@H](N)[C@@H](C)O)C(=O)O | - | - |  |  |
| CC(C)C[C@H](NC(=O)[C@@H](NC(=O)[C@H](CCC(N)=O)NC(=O)[C@H](CO)NC(=O)[C@H](Cc1c[nH]cn1)NC(=O)[C@H](CCCNC(=N)N)NC(=O)CNC(=O)[C@H](CC(=O)O)NC(=O)[C@H](Cc1ccccc1)NC(=O)[C@H](C)N)[C@@H](C)O)C(=O)O | + ((+) present for <5%) | + | + (low abundant (+) present for <5%) | + |
| CC(C)C[C@H](NC(=O)[C@H](CCCNC(=N)N)NC(=O)[C@H](CC(C)C)NC(=O)[C@@H](NC(=O)[C@@H](N)CC(N)=O)C(C)C)C(=O)N[C@@H](CS)C(=O)N[C@@H](CS)C(=O)N[C@@H](CCCCN)C(=O)N[C@@H](CCCCN)C(=O)O | - | - |  |  |
| CC[C@H](C)[C@H](NC(=O)[C@H](CO)NC(=O)CNC(=O)[C@H](Cc1c[nH]c2ccccc12)NC(=O)[C@H](CC(C)C)NC(=O)[C@@H](N)CCCNC(=N)N)C(=O)N[C@@H](CCC(N)=O)C(=O)N[C@@H](CO)C(=O)N[C@@H](CCCNC(=N)N)C(=O)O | - | - |  |  |
| CSCC[C@H](NC(=O)[C@H](C)N)C(=O)N[C@H](C(=O)N[C@@H](CCC(N)=O)C(=O)N[C@@H](C)C(=O)N[C@@H](Cc1c[nH]c2ccccc12)C(=O)N1CCC[C@H]1C(=O)N[C@@H](Cc1ccccc1)C(=O)N[C@H](C(=O)N[C@@H](CS)C(=O)O)[C@@H](C)O)C(C)C | - | - |  |  |
| CC[C@H](C)[C@H](NC(=O)[C@H](Cc1ccc(O)cc1)NC(=O)[C@@H](N)CCCNC(=N)N)C(=O)N[C@@H](CO)C(=O)N[C@@H](CCSC)C(=O)N[C@@H](CO)C(=O)N[C@H](C(=O)N[C@@H](Cc1c[nH]c2ccccc12)C(=O)N[C@H](C(=O)N[C@@H](CO)C(=O)O)[C@@H](C)O)C(C)C | - | - |  |  |
| CC(C)C[C@H](NC(=O)[C@H](CCCNC(=N)N)NC(=O)[C@H](CCC(=O)O)NC(=O)[C@H](CC(C)C)NC(=O)[C@H](Cc1c[nH]cn1)NC(=O)[C@H](CC(C)C)NC(=O)[C@@H](N)[C@@H](C)O)C(=O)N[C@@H](C)C(=O)N[C@@H](Cc1ccc(O)cc1)C(=O)O | - | - |  |  |
| CC(C)C[C@H](NC(=O)[C@@H](NC(=O)[C@H](CC(N)=O)NC(=O)[C@H](CCCCN)NC(=O)[C@H](CCCCN)NC(=O)[C@H](CCCNC(=N)N)NC(=O)[C@H](CCCCN)NC(=O)[C@@H](NC(=O)[C@@H](N)CCCCN)C(C)C)C(C)C)C(=O)N[C@@H](CCCNC(=N)N)C(=O)O | - | - |  |  |
| CC[C@H](C)[C@H](NC(=O)[C@H](C)NC(=O)[C@H](CC(C)C)NC(=O)[C@H](C)NC(=O)[C@H](CCC(=O)O)NC(=O)[C@H](CC(=O)O)NC(=O)[C@H](CCCCN)NC(=O)[C@H](CC(C)C)NC(=O)[C@H](CC(C)C)NC(=O)[C@@H](N)CO)C(=O)O | ++ ((++) fragments present for >5%) | + | ++ (abundant (++) present for >5%) | + |
| CC[C@H](C)[C@H](N)C(=O)N[C@@H](Cc1ccccc1)C(=O)N[C@@H](C)C(=O)N[C@@H](CCSC)C(=O)N1CCC[C@H]1C(=O)N[C@@H](CCSC)C(=O)N[C@@H](CCC(N)=O)C(=O)N[C@@H](CC(=O)O)C(=O)N[C@H](C(=O)O)[C@@H](C)CC | - | - |  |  |
| CC(C)C[C@H](NC(=O)[C@H](CCC(=O)O)NC(=O)[C@H](CS)NC(=O)[C@H](CC(C)C)NC(=O)[C@H](CC(C)C)NC(=O)[C@H](CCC(=O)O)NC(=O)[C@H](CCCNC(=N)N)NC(=O)[C@H](CC(C)C)NC(=O)[C@@H](N)CCCNC(=N)N)C(=O)O | - | - |  |  |
| GLSNITHVLY | - | - |  |  |
| CC[C@H](C)[C@H](NC(=O)[C@H](CC(C)C)NC(=O)[C@@H](N)Cc1ccc(O)cc1)C(=O)N[C@@H](CCC(=O)O)C(=O)N[C@@H](CCCCN)C(=O)N[C@H](C(=O)N[C@@H](CCCCN)C(=O)N[C@@H](CCCNC(=N)N)C(=O)N[C@@H](CCCCN)C(=O)N[C@@H](CCCCN)C(=O)O)C(C)C | - | - |  |  |
| C[C@@H](O)[C@H](NC(=O)[C@H](CCCNC(=N)N)NC(=O)[C@H](CC(=O)O)NC(=O)CNC(=O)[C@H](CS)NC(=O)[C@H](Cc1c[nH]cn1)NC(=O)[C@@H]1CCCN1C(=O)[C@@H](N)CS)C(=O)N[C@@H](Cc1ccccc1)C(=O)N[C@@H](Cc1ccc(O)cc1)C(=O)O | - | - |  |  |
| CC(C)C[C@H](NC(=O)[C@H](CCC(=O)O)NC(=O)[C@H](CC(=O)O)NC(=O)[C@H](CS)NC(=O)[C@H](C)NC(=O)CNC(=O)[C@H](CCC(=O)O)NC(=O)[C@H](CCCCN)NC(=O)[C@H](CC(C)C)NC(=O)[C@@H](N)Cc1ccccc1)C(=O)O | - | - |  |  |
| CSCC[C@H](NC(=O)[C@H](CC(C)C)NC(=O)[C@@H](N)C(C)C)C(=O)N[C@@H](CCCCN)C(=O)NCC(=O)N[C@@H](CCC(N)=O)C(=O)N[C@@H](Cc1c[nH]cn1)C(=O)N[C@@H](CC(C)C)C(=O)N[C@@H](Cc1c[nH]cn1)C(=O)N[C@@H](CC(C)C)C(=O)O | - | - |  |  |
| CC(C)C[C@H](NC(=O)[C@H](CC(C)C)NC(=O)[C@H](CC(C)C)NC(=O)[C@H](CCCNC(=N)N)NC(=O)[C@H](CCCNC(=N)N)NC(=O)[C@H](CC(C)C)NC(=O)[C@@H](N)CC(N)=O)C(=O)N[C@@H](CO)C(=O)N[C@@H](Cc1c[nH]cn1)C(=O)O | - | - |  |  |
| CC(C)C[C@H](NC(=O)[C@@H](NC(=O)[C@@H]1CCCN1C(=O)[C@H](CC(C)C)NC(=O)[C@H](CCCCN)NC(=O)[C@H](Cc1c[nH]c2ccccc12)NC(=O)[C@@H](NC(=O)[C@@H](N)CS)[C@@H](C)O)[C@@H](C)O)C(=O)N[C@@H](C)C(=O)O | - | - |  |  |
| CC(C)C[C@H](NC(=O)CNC(=O)[C@H](CC(=O)O)NC(=O)[C@H](CC(C)C)NC(=O)[C@@H](N)C(C)C)C(=O)N[C@@H](CC(=O)O)C(=O)N[C@H](C(=O)N[C@@H](CC(C)C)C(=O)N[C@@H](CC(C)C)C(=O)N[C@@H](C)C(=O)O)C(C)C | - | - |  |  |
